How the values were obtained:
Format in all cases: cell-based
CCRF-CEM = assay: NCI 60 cell line screen (SRB), Leukemia
K-562 = assay: NCI 60 cell line screen (SRB), Leukemia; conditions: K-562 (Leukemia)
SR = assay: NCI 60 cell line screen (SRB), Leukemia
A549/ATCC = assay: NCI 60 cell line screen (SRB), Non-Small Cell Lung Cancer
EKVX = assay: as above
HOP-62 = assay: as above; conditions: HOP-62 (Non-Small Cell Lung Cancer)
HOP-92 = assay: as above; conditions: HOP-92 (Non-Small Cell Lung Cancer)
NCI-H522 = assay: as above
HCC-2998 = assay: NCI 60 cell line screen (SRB), Colon Cancer; conditions: HCC-2998 (Colon Cancer)
HCT-116 = assay: NCI 60 cell line screen (SRB), Colon Cancer; conditions: HCT-116 (Colon Cancer)
HCT-15 = assay: NCI 60 cell line screen (SRB), Colon Cancer; conditions: HCT-15 (Colon Cancer)
KM12 = assay: NCI 60 cell line screen (SRB), Colon Cancer
SF-268 = assay: NCI 60 cell line screen (SRB), CNS Cancer; conditions: SF-268 (CNS Cancer)
LOX IMVI = assay: NCI 60 cell line screen (SRB), Melanoma
M14 = assay: NCI 60 cell line screen (SRB), Melanoma
SK-MEL-28 = assay: NCI 60 cell line screen (SRB), Melanoma; conditions: SK-MEL-28 (Melanoma)
SK-MEL-5 = assay: NCI 60 cell line screen (SRB), Melanoma; conditions: SK-MEL-5 (Melanoma)
UACC-62 = assay: NCI 60 cell line screen (SRB), Melanoma; conditions: UACC-62 (Melanoma)
OVCAR-3 = assay: NCI 60 cell line screen (SRB), Ovarian Cancer; conditions: OVCAR-3 (Ovarian Cancer)
OVCAR-4 = assay: NCI 60 cell line screen (SRB), Ovarian Cancer; conditions: OVCAR-4 (Ovarian Cancer)
786-0 = assay: NCI 60 cell line screen (SRB), Renal Cancer; conditions: 786-0 (Renal Cancer)
A498 = assay: NCI 60 cell line screen (SRB), Renal Cancer
CAKI-1 = assay: NCI 60 cell line screen (SRB), Renal Cancer; conditions: CAKI-1 (Renal Cancer)
TK-10 = assay: NCI 60 cell line screen (SRB), Renal Cancer; conditions: TK-10 (Renal Cancer)
UO-31 = assay: NCI 60 cell line screen (SRB), Renal Cancer; conditions: UO-31 (Renal Cancer)
PC-3 = assay: NCI 60 cell line screen (SRB), Prostate Cancer; conditions: PC-3 (Prostate Cancer)
MCF7 = assay: NCI 60 cell line screen (SRB), Breast Cancer
MCF7/ADR-RES = assay: NCI 60 cell line screen (SRB), Breast Cancer
MDA-MB231/ATCC = assay: NCI 60 cell line screen (SRB), Breast Cancer
MDA-MB-435 = assay: NCI 60 cell line screen (SRB), Breast Cancer; conditions: MDA-MB-435 (Breast Cancer)
MDA-N = assay: NCI 60 cell line screen (SRB), Breast Cancer

COC1OC2(C)CCC3CCCC(CCOCCC4CCCC5CCC6(C)OOC45C(OC)O6)C31OO2 (centres unmarked) [Compound 6, Trioxane Ether Dimer]
Log10GI50 (CCRF-CEM): −6.27 M
Log10LC50 (CCRF-CEM): >−4.00 M
Log10TGI (CCRF-CEM): −4.61 M
Log10GI50 (K-562): −6.75 M
Log10LC50 (K-562): >−4.00 M
Log10TGI (K-562): >−4.00 M
Log10GI50 (SR): −7.19 M
Log10LC50 (SR): >−4.00 M
Log10TGI (SR): −5.93 M
Log10GI50 (A549/ATCC): −5.79 M
Log10LC50 (A549/ATCC): >−4.00 M
Log10TGI (A549/ATCC): >−4.00 M
Log10GI50 (EKVX): −5.56 M
Log10LC50 (EKVX): >−4.00 M
Log10TGI (EKVX): >−4.00 M
Log10GI50 (HOP-62): −4.92 M
Log10LC50 (HOP-62): >−4.00 M
Log10TGI (HOP-62): >−4.00 M
Log10GI50 (HOP-92): −5.51 M
Log10LC50 (HOP-92): >−4.00 M
Log10TGI (HOP-92): −4.17 M
Log10GI50 (NCI-H522): −6.13 M
Log10LC50 (NCI-H522): >−4.00 M
Log10TGI (NCI-H522): −4.76 M
Log10GI50 (HCC-2998): −5.94 M
Log10LC50 (HCC-2998): −4.04 M
Log10TGI (HCC-2998): −4.90 M
Log10GI50 (HCT-116): −6.98 M
Log10LC50 (HCT-116): >−4.00 M
Log10TGI (HCT-116): >−4.00 M
Log10GI50 (HCT-15): −7.28 M
Log10LC50 (HCT-15): >−4.00 M
Log10TGI (HCT-15): >−4.00 M
Log10GI50 (KM12): −6.85 M
Log10LC50 (KM12): >−4.00 M
Log10TGI (KM12): −4.28 M
Log10GI50 (SF-268): −5.07 M
Log10LC50 (SF-268): >−4.00 M
Log10TGI (SF-268): >−4.00 M
Log10GI50 (LOX IMVI): −6.52 M
Log10LC50 (LOX IMVI): −4.33 M
Log10TGI (LOX IMVI): −4.83 M
Log10GI50 (M14): −5.59 M
Log10LC50 (M14): >−4.00 M
Log10TGI (M14): >−4.00 M
Log10GI50 (SK-MEL-28): −4.24 M
Log10LC50 (SK-MEL-28): >−4.00 M
Log10TGI (SK-MEL-28): >−4.00 M
Log10GI50 (SK-MEL-5): −7.39 M
Log10LC50 (SK-MEL-5): −4.15 M
Log10TGI (SK-MEL-5): −4.90 M
Log10GI50 (UACC-62): −6.46 M
Log10LC50 (UACC-62): >−4.00 M
Log10TGI (UACC-62): >−4.00 M
Log10GI50 (OVCAR-3): −6.10 M
Log10LC50 (OVCAR-3): >−4.00 M
Log10TGI (OVCAR-3): >−4.00 M
Log10GI50 (OVCAR-4): −5.11 M
Log10LC50 (OVCAR-4): >−4.00 M
Log10TGI (OVCAR-4): >−4.00 M
Log10GI50 (786-0): −5.65 M
Log10LC50 (786-0): >−4.00 M
Log10TGI (786-0): −4.53 M
Log10GI50 (A498): >−4.00 M
Log10LC50 (A498): >−4.00 M
Log10TGI (A498): >−4.00 M
Log10GI50 (CAKI-1): −5.44 M
Log10LC50 (CAKI-1): >−4.00 M
Log10TGI (CAKI-1): >−4.00 M
Log10GI50 (TK-10): −5.60 M
Log10LC50 (TK-10): >−4.00 M
Log10TGI (TK-10): −4.88 M
Log10GI50 (UO-31): −6.37 M
Log10LC50 (UO-31): −4.38 M
Log10GI50 (PC-3): −7.85 M
Log10LC50 (PC-3): −4.00 M
Log10TGI (PC-3): −4.75 M
Log10GI50 (MCF7): −6.37 M
Log10LC50 (MCF7): >−4.00 M
Log10TGI (MCF7): >−4.00 M
Log10GI50 (MCF7/ADR-RES): −6.13 M
Log10LC50 (MCF7/ADR-RES): >−4.00 M
Log10TGI (MCF7/ADR-RES): >−4.00 M
Log10GI50 (MDA-MB231/ATCC): −5.25 M
Log10LC50 (MDA-MB231/ATCC): >−4.00 M
Log10TGI (MDA-MB231/ATCC): >−4.00 M
Log10GI50 (MDA-MB-435): −6.38 M
Log10LC50 (MDA-MB-435): >−4.00 M
Log10TGI (MDA-MB-435): >−4.00 M
Log10GI50 (MDA-N): −6.19 M
Log10LC50 (MDA-N): >−4.00 M
Log10TGI (MDA-N): >−4.00 M

— patent USRE38117E1, “Trioxane dimer compound having antiproliferative and antitumor activities” (Hauser, Inc., priority 1995, dated 2003)
